For one data set, the system named is NMDA receptor. Briefly: Patch clamp: NMDA-induced inward currents in cultured hippocampal neurones. Format: cell-based, rat. The procedure:
Hippocampi were obtained from rat embryos (E20 to E21) and were then transferred to calcium and magnesium free Hank's buffered salt solution (Gibco) on ice. Cells were mechanically dissociated in 0.05% DNAase/0.3% ovomucoid (Sigma) following an 8 minute pre-incubation with 0.66% trypsin/0.1% DNAase (Sigma). The dissociated cells were then centrifuged at 18 ×g for 10 minutes, re-suspended in minimum essential medium (Gibco) and plated at a density of 150,000 cells cm^-2 onto poly-L-lysine (Sigma)-precoated plastic petri dishes (Falcon). The cells were nourished with NaHCO3 /HEPES-buffered minimum essential medium supplemented with 5% fetal calf serum and 5% horse serum (Gibco) and incubated at 37° C. with 5% CO2 at 95% humidity. […] Thereafter the medium was exchanged partially twice weekly.
Patch clamp recordings were made from these neurones with polished glass electrodes (4-6 m.OMEGA.) in the whole cell mode at room temperature (20-22° C.) with the aid of an EPC-7 amplifier (List). Test substances were applied by switching channels of a custom-made fast superfusion system with a common outflow (10-20 ms exchange times). The contents of the intracellular solution were as follows (mM): CsCl (120), TEACl (20), EGTA (10), MgCl2 (1), CaCl2 -(0.2), glucose (10), ATP(2), cAMP (0.25); pH was adjusted to 7.3 with CsOH or HC1. The extracellular solutions had the following basic composition (mM): NaCl (140), KCl (3), CaCl2 (0.2), glucose (10), HEPES (10), sucrose (4.5), tetrodotoxin (TTX 3*10^-4). Glycine (1 μM) was present in all solutions: a concentration sufficient to cause around 80-85% activation of glycineB receptors. Only results from stable cells were accepted for inclusion in the final analysis, i.e., following recovery of responses to NMDA by at least 75% of their depression by the antagonists tested.
IC50 s in patch clamp, excitotoxicity, and binding studies were calculated according to the four parameter logistic equation using the Grafit computer program (Erithacus Software, England). Ki value for binding studies were then determined according to Cheng and Prusoff. Binding values presented are means±SEM of 3-5 determinations (each performed in duplicate). […] Pearson product moment correlation analysis (Sigma Stat, Jandel Scientific) was used to compare in vitro potencies and in vivo anticonvulsant activity.

Data set [1] can be described thus: Rotarod test (motor coordination, ataxia) in mice, therapeutic index versus MES. Format: in vivo. The note with it: mouse, in vivo, ip; ED50 for rotarod failure divided by ED50 for MES; read-out: TI Rot. The procedure: All compounds were dissolved in 0.9% saline.
The MES test was performed together with tests for myorelaxant action (traction reflex) and motor coordination (rotarod). For the traction reflex test mice were placed with their forepaws on a horizontal rod and were required to place all 4 paws on the wire within 10 seconds. To test ataxia (motor coordination) mice were placed on rotarod (5 rpm) and were required to remain on the rod for 1 minute. […] These tests were followed by MES (100 Hz, 0.5 second shock duration, 50 mA shock intensity, 0.9 ms impulse duration, Ugo Basile) applied through corneal electrodes. The presence of tonic convulsions was scored (tonic extension of hind paws with minimum angle to the body of 90°). The aim was to obtain ED50 s for all parameters scored (anticonvulsive activity and motor side effects) with use of the Litchfield Wilcoxon test for quantal dose responses. Division of the ED50 for side effects (ataxia or myorelaxation) by the ED50 for antagonism of electroshock convulsions was used as a therapeutic index (TI).
IC50 s in patch clamp, excitotoxicity, and binding studies were calculated according to the four parameter logistic equation using the Grafit computer program (Erithacus Software, England). Ki value for binding studies were then determined according to Cheng and Prusoff. […] Pearson product moment correlation analysis (Sigma Stat, Jandel Scientific) was used to compare in vitro potencies and in vivo anticonvulsant activity.
(In general: In the rotarod test animals must keep their balance on a rotating rod.)

The conditions of data set [2]: human, in vivo; cited from earlier work.
Another data set in a line: PTZ-induced convulsions. Format: in vivo, mice. The settings on record: Mus musculus, ip; read-out: ED50 in the PTZ test.
The nature of the next data set: NMDA-induced convulsions. Format: in vivo, mice. The settings on record: Mus musculus, ip; read-out: ED50 in the NMDA test.

Where two headings read alike, the source gives them in different places.

Broadly, the IC50 is the concentration that inhibits the measured activity by half. Regarding `CC12CC3CC(C)(C1)CC(N)(C3)C2` [Memantine, reference compound], the IC50 in the data set on NMDA receptor (read-out: Patch Clamp IC50; Table 7; NMDA 200 μM with glycine 1 μM at -70 mV) came to 2300 nM; in the data set with NMDA receptor (read-out: Patch Clamp IC50; Table 9; NMDA-induced currents), 2870 nM. In data set [1], the selectivity ratio at 0.5 h is 2.5. The “side effects in humans” value in data set [2] is “rarely produce side effects at the therapeutic doses”.
As a reminder, the ED50 is the dose that gives a 50% effect, or the effect in half of the subjects. `CC1(C)CC(C)(C)CC(C)(N)C1` [Mrz 2/579, 1-amino-1,3,3,5,5-pentamethylcyclohexane]: the IC50 with NMDA receptor (Table 7; NMDA 200 μM with glycine 1 μM at -70 mV; read-out: Patch Clamp IC50) came to 1300 nM; with NMDA receptor (Table 9; NMDA-induced currents; read-out: Patch Clamp IC50) it was 1290 nM. Also, the ED50 in the data set “PTZ-induced convulsions” turned out to be 5.5 mg/kg; in “NMDA-induced convulsions”, 3.7 mg/kg.

The values are drawn from patent US6034134A, “1-Amino-alkylcyclohexane NMDA receptor antagonists” (Merz + Co. GmbH & Co., priority 1998, dated 2000).
